For series [1] the following is noted: cited from earlier work; for Observed AUC(0-inf) Fasted / Observed Cmax Fasted / Observed AUC(0-inf) Fed / Observed Cmax Fed / Observed AUC Ratios (Fed/Fasted) / Observed Cmax Ratios (Fed/Fasted): ref published clinical data (Table I).
Series [2] is described as follows: Solubility measurement in biorelevant media (FaSSIF-V2, FeSSIF-V2). The settings on record: 37 °C, thermodynamic from solid.
For series [3] the following is noted: not generated within this working group; ref Table I; cited from earlier work.
Series [4] is described as follows: PBPK food effect modeling (Simcyp V17.1 and/or GastroPlus V9.5; Model 1 / Model 2). Set-up: species or system human.
A short description of series [5]: Effective human jejunum permeability (Peff,man) used in the PBPK model. Format: in vitro ADME. The settings on record: human, 1 h.
Setting [6] is: clinically observed PK change (AUC, Cmax) fed vs fasted, compiled by literature search.
Where [7] appears, read: FaSSIF-V2 (fasted state simulated intestinal fluid), FaSSIF solubility.
Setting [8] is: FeSSIF-V2 (fed state simulated intestinal fluid), FeSSIF solubility.
The mark [9] stands for this setting: direction, AUC and/or Cmax ratio fed to fasted, BE criteria 0.8–1.25, ref drug label.

≈ marks a conversion by molar mass, not a printed value. Where a name gives a salt, the structure may show the parent alone. Read-outs that look alike come from different tables or passages of the source.

The pKa is the negative logarithm of the acid dissociation constant. For `Cc1cn([C@H]2C[C@H](N=[N+]=[N-])[C@@H](CO)O2)c(=O)[nH]c1=O` [Zidovudine], in series [1] (Model 1), the “Observed AUC(0-inf) Fasted” value was 2480 ng·h/mL, the “Observed Cmax Fasted” value is 1130 ng/mL, the “Observed AUC(0-inf) Fed” value was 2170 ng·h/mL and the “Observed Cmax Fed” value is 632 ng/mL. For the same molecule, the “Food Effect” value in series [1] (setting [6]) is given as “Negative (negative if ratio fasted > fed)”. Besides, in series [1] (ref drug label), the “food effect (FE) direction” value was “negative FE”. In addition, the pKa in “pKa” (pKa (b, basic)) turned out to be 9.7.

The solubility is the concentration that dissolves in the medium under given conditions. For `CCc1cc2c(cc1N1CCC(N3CCOCC3)CC1)C(C)(C)c1[nH]c3cc(C#N)ccc3c1C2=O` [Alectinib], in series [1] (Model 1), the “Observed AUC(0-inf) Fasted” value is 1790 ng·h/mL, the “Observed AUC(0-inf) Fed” value is 5230 ng·h/mL and the “Observed Cmax Fed” value is 257 ng/mL. Besides, in series [1] (Model 2), the “Observed AUC(0-inf) Fasted” value is 1790 ng·h/mL, the “Observed AUC(0-inf) Fed” value was 5230 ng·h/mL and the “Observed Cmax Fed” value was 257 ng/mL. Besides, the concentration in solution in series [2] (setting [7]) (solubility) came to 23 µg/mL (≈ 47.7 µM). Further, the solubility in series [2] (setting [8]) was 77 µg/mL (≈ 160 µM). Besides, in “pKa” (pKa (b, basic)), the pKa amounted to 7.05.

Turning to `CC(C)NC[C@@H](O)c1ccc(NS(C)(=O)=O)cc1` [d-Sotalol], in series [1] (Model 1), the “Observed AUC(0-inf) Fasted” value was 15500 ng·h/mL, the “Observed Cmax Fasted” value is 1200 ng/mL and the “Observed AUC(0-inf) Fed” value was 12600 ng·h/mL. The “Food Effect” value in series [1] (setting [6]) was “None (none if no significant change in AUC and Cmax with food)”. In series [3], the “Solubility at pH 6.5” value is listed as 15,800^^ μg/ml. Besides, the “pKa (b, basic)” value in the series “pKa” amounted to 9.72. Moreover, the pKa in “pKa” (pKa (a, acidic)) came to 8.28.

Turning to `Cc1c(F)cccc1NC(=O)Nc1ccc(Cl)c(S(=O)(=O)[C@H]2CCCNC2)c1O` [Danirixin], in series [1] (Model 1), the “Observed AUC(0-inf) Fasted” value was 10400 ng·h/mL, the “Observed Cmax Fasted” value is 3020 ng/mL, the “Observed AUC(0-inf) Fed” value was 6760 ng·h/mL and the “Observed Cmax Fed” value is 1300 ng/mL. For the same molecule, in series [1] (Model 1), the “Observed AUC Ratios (Fed/Fasted)” value is 0.65 and the “Observed Cmax Ratios (Fed/Fasted)” value was 0.43. Also, the “Food Effect” value in series [1] (setting [6]) is listed as “Negative (negative if ratio fasted > fed)”. In series [1] (setting [9]), the Food Effect result is “Negative (negative if ratio fasted > fed)”. In addition, in series [4] (Model 1), the “AUC Ratio of Ratios (Sim'd / Obs'd)” value was found to be 1.51 and the “Cmax Ratio of Ratios (Sim'd / Obs'd)” value was 1.70. In series [2] (setting [7]), this molecule showed a solubility of 459 µg/mL (≈ 1040 µM). The molecule also came in with a pKa in “pKa” (pKa (a, acidic)) of 4.8. Moreover, the pKa in “pKa” (pKa (b, basic)) came out at 8.1.

Turning to `CC[C@H]1OC(=O)[C@H](C)[C@@H](O[C@H]2C[C@@](C)(OC)[C@@H](O)[C@H](C)O2)[C@H](C)[C@@H](O[C@@H]2O[C@H](C)C[C@H](N(C)C)[C@H]2O)[C@](C)(OC)C[C@@H](C)C(=O)[C@H](C)[C@@H](O)[C@]1(C)O` [Clarithromycin], in series [1] (Model 1), the “Observed AUC(0-inf) Fasted” value is 12600 ng·h/mL, the “Observed Cmax Fasted” value is 1650 ng/mL, the “Observed AUC(0-inf) Fed” value is 15700 ng·h/mL and the “Observed Cmax Fed” value was 2510 ng/mL. Further, in series [1] (Model 2), the “Observed AUC(0-inf) Fasted” value was 12600 ng·h/mL, the “Observed Cmax Fasted” value is 1650 ng/mL, the “Observed AUC(0-inf) Fed” value was 15700 ng·h/mL and the “Observed Cmax Fed” value was 2510 ng/mL. Also, the “Food Effect” value in series [1] (setting [6]) is recorded as “Positive (positive if the ratio of fed > fasted)”. Moreover, the Effective permeability in series [5] is 30 ×10⁻⁶ cm/s. In series [2] (setting [7]), this molecule registered a solubility of 132 µg/mL (≈ 176 µM). For the same molecule, the concentration in solution in series [2] (setting [8]) (solubility) was 1660 µg/mL (≈ 2210 µM).

For the molecule `Cc1ccc(NC(=O)c2ccc(CN3CCN(C)CC3)cc2)cc1Nc1nccc(-c2cccnc2)n1` [Imatinib], the Food Effect entry in series [1] (setting [9]) is “None (none if no significant change in AUC and Cmax with food)”. In addition, the Effective permeability in series [5] is 110 ×10⁻⁶ cm/s. For the same molecule, the “pKa (b, basic)” value in “pKa” is given as 8.07. Also, the pKa in “pKa” (pKa (b, basic)) came to 3.73.

Consider `CCC(C)n1ncn(-c2ccc(N3CCN(c4ccc(OCC5COC(Cn6cncn6)(c6ccc(Cl)cc6Cl)O5)cc4)CC3)cc2)c1=O` (stereo not drawn) [Itraconazole], for which, in series [1] (Model 1), the “Observed AUC(0-inf) Fasted” value was 1880 ng·h/mL, the “Observed Cmax Fasted” value is 140 ng/mL, the “Observed AUC(0-inf) Fed” value was 3120 ng·h/mL and the “Observed Cmax Fed” value was 239 ng/mL. Besides, in series [1] (Model 1), the “Observed AUC Ratios (Fed/Fasted)” value is on record as 1.66 and the “Observed Cmax Ratios (Fed/Fasted)” value is 1.71. In addition, in series [1] (Model 2), the “Observed AUC(0-inf) Fasted” value is 1880 ng·h/mL, the “Observed Cmax Fasted” value is 140 ng/mL, the “Observed AUC(0-inf) Fed” value was 3120 ng·h/mL and the “Observed Cmax Fed” value was 239 ng/mL. In series [1] (Model 2), the “Observed AUC Ratios (Fed/Fasted)” value is on record as 1.66 and the “Observed Cmax Ratios (Fed/Fasted)” value is on record as 1.71. For the same molecule, the “Food Effect” value in series [1] (setting [6]) is listed as “Positive (positive if the ratio of fed > fasted)”. Besides, the Food Effect entry in series [1] (setting [9]) is on record as “Positive (positive if the ratio of fed > fasted)”. The molecule further registered an Effective permeability in series [5] of 990 ×10⁻⁶ cm/s. In series [4] (Model 1), the “AUC Ratio of Ratios (Sim'd / Obs'd)” value was found to be 0.82 and the “Cmax Ratio of Ratios (Sim'd / Obs'd)” value was 1.03. Besides, in series [4] (Model 2), the “AUC Ratio of Ratios (Sim'd / Obs'd)” value was 1.00 and the “Cmax Ratio of Ratios (Sim'd / Obs'd)” value is given as 1.02. For the same molecule, the concentration in solution in series [2] (setting [7]) (solubility) was 1120 µg/mL (≈ 1590 µM). This molecule also displayed a solubility in series [2] (setting [8]) of 3620 µg/mL (≈ 5130 µM). The molecule further yielded a pKa in “pKa” (pKa (b, basic)) of 4.28.

For the molecule `Cc1c(C(=O)Nc2ccc(N3C[C@@H](C)O[C@@H](C)C3)nc2)cccc1-c1ccc(OC(F)(F)F)cc1` [Sonidegib], the “Food Effect” value in series [1] (setting [6]) was “Positive (positive if the ratio of fed > fasted)”.

Take `O=C1CCc2ccc(OCCCCN3CCN(c4cccc(Cl)c4Cl)CC3)cc2N1` [Aripiprazole]: the “Food Effect” value in series [1] (setting [6]) is “None (none if no significant change in AUC and Cmax with food)”.

Turning to `Cc1ccc(-c2cc(C(F)(F)F)nn2-c2ccc(S(N)(=O)=O)cc2)cc1` [Celecoxib], the “Food Effect” value in series [1] (setting [6]) was “Slightly positive”.

Take `CCC[C@H](NC(=O)[C@@H]1[C@H]2CCC[C@H]2CN1C(=O)[C@@H](NC(=O)[C@@H](NC(=O)c1cnccn1)C1CCCCC1)C(C)(C)C)C(=O)C(=O)NC1CC1` [Telapravir]: the “Food Effect” value in series [1] (setting [6]) was “Positive (positive if the ratio of fed > fasted)”.

As for `CC(O)(CS(=O)(=O)c1ccc(F)cc1)C(=O)Nc1ccc(C#N)c(C(F)(F)F)c1` (stereo not drawn) [Bicalutamide], the “Food Effect” value in series [1] (setting [6]) is “None (none if no significant change in AUC and Cmax with food)”.

For the molecule `CC(C)c1nc(CN(C)C(=O)N[C@H](C(=O)N[C@@H](Cc2ccccc2)C[C@H](O)[C@H](Cc2ccccc2)NC(=O)OCc2cncs2)C(C)C)cs1` [Ritonavir], in series [1] (setting [6]), the “Food Effect” value was “None (none if no significant change in AUC and Cmax with food)”.

`CNCCC(Oc1ccc(C(F)(F)F)cc1)c1ccccc1` (stereo not drawn) [Fluoxetine HCl]: in series [1] (Model 1), the “Observed AUC(0-inf) Fasted” value is 1930 ng·h/mL, the “Observed Cmax Fasted” value is 39.3 ng/mL, the “Observed AUC(0-inf) Fed” value was 1340 ng·h/mL and the “Observed Cmax Fed” value is 35.7 ng/mL. Moreover, in series [1] (Model 2), the “Observed AUC(0-inf) Fasted” value is 1930 ng·h/mL, the “Observed Cmax Fasted” value is 39.3 ng/mL, the “Observed AUC(0-inf) Fed” value is 1340 ng·h/mL and the “Observed Cmax Fed” value was 35.7 ng/mL. Also, the “food effect (FE) direction” value in series [1] (ref drug label) is on record as “no FE”. The pKa in the series “pKa” (pKa (b, basic)) is 9.8.

With `CC(C)c1c(C(=O)Nc2ccccc2)c(-c2ccccc2)c(-c2ccc(F)cc2)n1CC[C@@H](O)C[C@@H](O)CC(=O)O` [Atorvastatin], the “Food Effect” value in series [1] (setting [6]) is “None (none if no significant change in AUC and Cmax with food)”.

For the molecule `CC[C@@H]([C@H](C)O)n1ncn(-c2ccc(N3CCN(c4ccc(OC[C@@H]5CO[C@@](Cn6cncn6)(c6ccc(F)cc6F)C5)cc4)CC3)cc2)c1=O` [Posaconazole], in series [1] (setting [6]), the “Food Effect” value was “Positive (positive if the ratio of fed > fasted)”.

For `CNCCC(Oc1ccc(C(F)(F)F)cc1)c1ccccc1` (stereo not drawn) [Fluoxetine hydrochloride], in series [1] (setting [6]), the “Food Effect” value is “None (none if no significant change in AUC and Cmax with food)”.

As to `CS(=O)(=O)c1ccc(C2=C(c3ccccc3)C(=O)OC2)cc1` [Rofecoxib], in series [1] (setting [6]), the “Food Effect” value is “None (none if no significant change in AUC and Cmax with food)”.

With `O=P(O)(O)C(Cl)(Cl)P(=O)(O)O` [Clodronate], the “Food Effect” value in series [1] (setting [6]) is on record as “Negative (negative if ratio fasted > fed)”.

Regarding `CCCSc1ccc2nc(NC(=O)OC)[nH]c2c1` [Albendazole], the “Food Effect” value in series [1] (setting [6]) was “Positive (positive if the ratio of fed > fasted)”.

Turning to `NC(=O)c1ncn([C@@H]2O[C@H](CO)[C@@H](O)[C@H]2O)n1` [Ribavirin], the “Food Effect” value in series [1] (setting [6]) was “Positive (positive if the ratio of fed > fasted)”.

`NNc1nncc2ccccc12` [Hydralazine]: in series [1] (setting [6]), the “Food Effect” value is “Negative (negative if ratio fasted > fed)”.

Take `COc1cc2nccc(Oc3ccc(NC(=O)C4(C(=O)Nc5ccc(F)cc5)CC4)cc3)c2cc1OC` [Cabozantinib]: in series [1] (setting [6]), the “Food Effect” value is “Positive (positive if the ratio of fed > fasted)”.

For `CC(C)c1nc(N(C)S(C)(=O)=O)nc(-c2ccc(F)cc2)c1/C=C/[C@@H](O)C[C@@H](O)CC(=O)O` [Rosuvastatin], in series [1] (setting [6]), the “Food Effect” value was “Negative (negative if ratio fasted > fed)”.

Regarding `O=[N+]([O-])O[C@@H]1CO[C@H]2[C@@H]1OC[C@@H]2O` [Isosorbide Mononitrite], the “Food Effect” value in series [1] (setting [6]) was “None (none if no significant change in AUC and Cmax with food)”.

On to `Nc1nc(O)c2ncn(COC(CO)CO)c2n1` [Ganciclovir], for which, in series [1] (setting [6]), the “Food Effect” value is “None (none if no significant change in AUC and Cmax with food)”.

The record behind these values is publication PMC7520419 (The AAPS Journal, 2020).
